PubChem BioAssay AID2060896 (Molecular Pharmacology Branch, DTP, NCI, 2025)

System: 941728-121-R-J1-PDC complex spheroid viability
Assay: Anticancer human tumor 941728-121-R-J1-PDC patient-derived lung adenocarcinoma cell line growth inhibition [RAS]
Settings: for IC50: curve of first compound; for viability, T/C: stronger effect = lower value
Method in brief: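 Multi-cell-type spheroids: tumor cells plus HUVEC endothelial cells and mesenchymal stem cells. RAS-pathway inhibitors were combined with targeted agents, each dosed in half-log steps down from clinical Cmax, or from 10 microM when Cmax was unknown.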

[1] = second compound 0.00316 µM, first compound 0.0316 µM
[2] = second compound 0.00316 µM, first compound 0.1 µM
[3] = second compound 0.00316 µM, first compound 0.316 µM
[4] = second compound 0.00316 µM, first compound 1 µM
[5] = second compound 0.00316 µM, first compound 3.16 µM
[6] = second compound 0.00316 µM, first compound 10 µM
[7] = second compound 0.01 µM, first compound 0.0316 µM
[8] = second compound 0.01 µM, first compound 0.1 µM
[9] = second compound 0.01 µM, first compound 0.316 µM
[10] = second compound 0.01 µM, first compound 1 µM
[11] = second compound 0.01 µM, first compound 3.16 µM
[12] = second compound 0.01 µM, first compound 10 µM
[13] = second compound 0.0316 µM, first compound 0.0316 µM
[14] = second compound 0.0316 µM, first compound 0.1 µM
[15] = second compound 0.0316 µM, first compound 0.316 µM
[16] = second compound 0.0316 µM, first compound 1 µM
[17] = second compound 0.0316 µM, first compound 3.16 µM
[18] = second compound 0.0316 µM, first compound 10 µM
[19] = second compound 0.1 µM, first compound 0.0316 µM
[20] = second compound 0.1 µM, first compound 0.1 µM
[21] = second compound 0.1 µM, first compound 0.316 µM
[22] = second compound 0.1 µM, first compound 1 µM
[23] = second compound 0.1 µM, first compound 3.16 µM
[24] = second compound 0.1 µM, first compound 10 µM
[25] = second compound 0.316 µM, first compound 0.0316 µM
[26] = second compound 0.316 µM, first compound 0.1 µM
[27] = second compound 0.316 µM, first compound 0.316 µM
[28] = second compound 0.316 µM, first compound 1 µM
[29] = second compound 0.316 µM, first compound 3.16 µM
[30] = second compound 0.316 µM, first compound 10 µM
[31] = second compound 1 µM, first compound 0.0316 µM
[32] = second compound 1 µM, first compound 0.1 µM
[33] = second compound 1 µM, first compound 0.316 µM
[34] = second compound 1 µM, first compound 1 µM
[35] = second compound 1 µM, first compound 3.16 µM
[36] = second compound 1 µM, first compound 10 µM
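Note: spheroids exposed to compounds for 7 days before readout.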
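Throughout, for viability, T/C: 100% = DMSO vehicle control viability.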

## CC1(O)CCCC1n1c(=O)c(C(F)F)cc2cnc(NC3CCN(S(C)(=O)=O)CC3)nc21 (stereo not given) + C=CC(=O)N1CCN(c2nc(OCC3CCCN3C)nc3c(F)c(-c4nc(N)cc(C)c4C(F)(F)F)c(Cl)cc23)C(C)C1
Second compound 0.00316 µM
  IC50: < 0.0316 µM
Second compound 0.01 µM
  IC50: < 0.0316 µM
Second compound 0.0316 µM
  IC50: < 0.0316 µM
Second compound 0.1 µM
  IC50: < 0.0316 µM
Second compound 0.316 µM
  IC50: < 0.0316 µM
Second compound 1 µM
  IC50: < 0.0316 µM
[1]
  viability, T/C: 21.1%
[2]
  viability, T/C: 22.3%
[3]
  viability, T/C: 21.8%
[4]
  viability, T/C: 24.1%
[5]
  viability, T/C: 21.9%
[6]
  viability, T/C: 23.6%
[7]
  viability, T/C: 18.8%
[8]
  viability, T/C: 25.2%
[9]
  viability, T/C: 19.6%
[10]
  viability, T/C: 21.8%
[11]
  viability, T/C: 23%
[12]
  viability, T/C: 26.5%
[13]
  viability, T/C: 18%
[14]
  viability, T/C: 17.9%
[15]
  viability, T/C: 21.4%
[16]
  viability, T/C: 19.1%
[17]
  viability, T/C: 20.3%
[18]
  viability, T/C: 23.1%
[19]
  viability, T/C: 20.1%
[20]
  viability, T/C: 18.7%
[21]
  viability, T/C: 20.1%
[22]
  viability, T/C: 22.8%
[23]
  viability, T/C: 21.8%
[24]
  viability, T/C: 24.6%
[25]
  viability, T/C: 21.1%
[26]
  viability, T/C: 19.9%
[27]
  viability, T/C: 21.4%
[28]
  viability, T/C: 22.1%
[29]
  viability, T/C: 21.6%
[30]
  viability, T/C: 28.1%
[31]
  viability, T/C: 21.1%
[32]
  viability, T/C: 19.7%
[33]
  viability, T/C: 26.4%
[34]
  viability, T/C: 21.9%
[35]
  viability, T/C: 24.1%
[36]
  viability, T/C: 33.4%

## CCC(CC)c1cc(NC2CCC(N)C2)n2nccc2n1 (stereo not given) + C=CC(=O)N1CCN(c2nc(OCC3CCCN3C)nc3c(F)c(-c4nc(N)cc(C)c4C(F)(F)F)c(Cl)cc23)C(C)C1
Second compound 0.00316 µM
  IC50: < 0.0316 µM
Second compound 0.01 µM
  IC50: < 0.0316 µM
Second compound 0.0316 µM
  IC50: < 0.0316 µM
Second compound 0.1 µM
  IC50: < 0.0316 µM
Second compound 0.316 µM
  IC50: < 0.0316 µM
Second compound 1 µM
  IC50: < 0.0316 µM
[1]
  viability, T/C: 19.6%
[2]
  viability, T/C: 18.1%
[3]
  viability, T/C: 20.3%
[4]
  viability, T/C: 27.2%
[5]
  viability, T/C: 13.7%
[6]
  viability, T/C: 29.1%
[7]
  viability, T/C: 20.1%
[8]
  viability, T/C: 19.9%
[9]
  viability, T/C: 21.8%
[10]
  viability, T/C: 28.4%
[11]
  viability, T/C: 13.3%
[12]
  viability, T/C: 25%
[13]
  viability, T/C: 20%
[14]
  viability, T/C: 24.5%
[15]
  viability, T/C: 23.5%
[16]
  viability, T/C: 27.3%
[17]
  viability, T/C: 13.7%
[18]
  viability, T/C: 25.9%
[19]
  viability, T/C: 19.7%
[20]
  viability, T/C: 18.3%
[21]
  viability, T/C: 23.4%
[22]
  viability, T/C: 27.3%
[23]
  viability, T/C: 16.6%
[24]
  viability, T/C: 25.9%
[25]
  viability, T/C: 19.1%
[26]
  viability, T/C: 21.6%
[27]
  viability, T/C: 21.5%
[28]
  viability, T/C: 26%
[29]
  viability, T/C: 14.9%
[30]
  viability, T/C: 26.1%
[31]
  viability, T/C: 20.6%
[32]
  viability, T/C: 21.2%
[33]
  viability, T/C: 22.6%
[34]
  viability, T/C: 30.2%
[35]
  viability, T/C: 16.8%
[36]
  viability, T/C: 32.5%

## CCN1CCN(Cc2ccc(Nc3ncc(F)c(-c4cc(F)c5nc(C)n(C(C)C)c5c4)n3)nc2)CC1 + C=CC(=O)N1CCN(c2nc(OCC3CCCN3C)nc3c(F)c(-c4nc(N)cc(C)c4C(F)(F)F)c(Cl)cc23)C(C)C1
Second compound 0.00316 µM
  IC50: < 0.00316 µM
Second compound 0.01 µM
  IC50: < 0.00316 µM
Second compound 0.0316 µM
  IC50: < 0.00316 µM
Second compound 0.1 µM
  IC50: < 0.00316 µM
Second compound 0.316 µM
  IC50: < 0.00316 µM
Second compound 1 µM
  IC50: < 0.00316 µM
Second compound 0.00316 µM, first compound 0.00316 µM
  viability, T/C: 21.3%
Second compound 0.00316 µM, first compound 0.01 µM
  viability, T/C: 18.4%
[1]
  viability, T/C: 18.1%
[2]
  viability, T/C: 20.8%
[3]
  viability, T/C: 15.6%
[4]
  viability, T/C: 15.6%
Second compound 0.01 µM, first compound 0.00316 µM
  viability, T/C: 20.1%
Second compound 0.01 µM, first compound 0.01 µM
  viability, T/C: 18.5%
[7]
  viability, T/C: 17.5%
[8]
  viability, T/C: 15.9%
[9]
  viability, T/C: 13.1%
[10]
  viability, T/C: 12.6%
Second compound 0.0316 µM, first compound 0.00316 µM
  viability, T/C: 18.4%
Second compound 0.0316 µM, first compound 0.01 µM
  viability, T/C: 20.1%
[13]
  viability, T/C: 14.6%
[14]
  viability, T/C: 13.5%
[15]
  viability, T/C: 13.8%
[16]
  viability, T/C: 15.1%
Second compound 0.1 µM, first compound 0.00316 µM
  viability, T/C: 18.8%
Second compound 0.1 µM, first compound 0.01 µM
  viability, T/C: 19%
[19]
  viability, T/C: 18.6%
[20]
  viability, T/C: 15.8%
[21]
  viability, T/C: 14.4%
[22]
  viability, T/C: 13.5%
Second compound 0.316 µM, first compound 0.00316 µM
  viability, T/C: 18%
Second compound 0.316 µM, first compound 0.01 µM
  viability, T/C: 17.4%
[25]
  viability, T/C: 18.5%
[26]
  viability, T/C: 17.3%
[27]
  viability, T/C: 13.2%
[28]
  viability, T/C: 13.9%
Second compound 1 µM, first compound 0.00316 µM
  viability, T/C: 21.6%
Second compound 1 µM, first compound 0.01 µM
  viability, T/C: 18.8%
[31]
  viability, T/C: 20.6%
[32]
  viability, T/C: 16.5%
[33]
  viability, T/C: 14.7%
[34]
  viability, T/C: 13.2%

## Cc1nc(N2CCC3(CC2)COC(C)C3N)c(CO)nc1Sc1ccnc(N)c1Cl (stereo not given) + C=CC(=O)N1CCN(c2nc(OCC3CCCN3C)nc3c(F)c(-c4nc(N)cc(C)c4C(F)(F)F)c(Cl)cc23)C(C)C1
Second compound 0.00316 µM
  IC50: < 0.0316 µM
Second compound 0.01 µM
  IC50: < 0.0316 µM
Second compound 0.0316 µM
  IC50: < 0.0316 µM
Second compound 0.1 µM
  IC50: < 0.0316 µM
Second compound 0.316 µM
  IC50: < 0.0316 µM
Second compound 1 µM
  IC50: < 0.0316 µM
[1]
  viability, T/C: 19%
[2]
  viability, T/C: 17.5%
[3]
  viability, T/C: 16.5%
[4]
  viability, T/C: 17.4%
[5]
  viability, T/C: 16.4%
[6]
  viability, T/C: 17.3%
[7]
  viability, T/C: 17.8%
[8]
  viability, T/C: 17.4%
[9]
  viability, T/C: 18.4%
[10]
  viability, T/C: 20.9%
[11]
  viability, T/C: 16.2%
[12]
  viability, T/C: 16.3%
[13]
  viability, T/C: 18.5%
[14]
  viability, T/C: 18.3%
[15]
  viability, T/C: 13.9%
[16]
  viability, T/C: 15.6%
[17]
  viability, T/C: 15.9%
[18]
  viability, T/C: 16.9%
[19]
  viability, T/C: 19%
[20]
  viability, T/C: 16.7%
[21]
  viability, T/C: 15.5%
[22]
  viability, T/C: 17.6%
[23]
  viability, T/C: 17.8%
[24]
  viability, T/C: 14.9%
[25]
  viability, T/C: 19.3%
[26]
  viability, T/C: 28.2%
[27]
  viability, T/C: 18.2%
[28]
  viability, T/C: 16.4%
[29]
  viability, T/C: 15.9%
[30]
  viability, T/C: 15.9%
[31]
  viability, T/C: 20.2%
[32]
  viability, T/C: 18.2%
[33]
  viability, T/C: 15.9%
[34]
  viability, T/C: 16.1%
[35]
  viability, T/C: 19.1%
[36]
  viability, T/C: 18.1%

## NC1c2ccccc2OC12CCN(c1cnc3c(N4CCCc5ncccc54)n[nH]c3n1)CC2 (stereo not given) + C=CC(=O)N1CCN(c2nc(OCC3CCCN3C)nc3c(F)c(-c4nc(N)cc(C)c4C(F)(F)F)c(Cl)cc23)C(C)C1
Second compound 0.00316 µM
  IC50: < 0.0316 µM
Second compound 0.01 µM
  IC50: < 0.0316 µM
Second compound 0.0316 µM
  IC50: < 0.0316 µM
Second compound 0.1 µM
  IC50: < 0.0316 µM
Second compound 0.316 µM
  IC50: < 0.0316 µM
Second compound 1 µM
  IC50: < 0.0316 µM
[1]
  viability, T/C: 15.4%
[2]
  viability, T/C: 15.1%
[3]
  viability, T/C: 15.6%
[4]
  viability, T/C: 17%
[5]
  viability, T/C: 16.8%
[6]
  viability, T/C: 17.1%
[7]
  viability, T/C: 18.8%
[8]
  viability, T/C: 15.7%
[9]
  viability, T/C: 16.2%
[10]
  viability, T/C: 15.5%
[11]
  viability, T/C: 17.1%
[12]
  viability, T/C: 17.5%
[13]
  viability, T/C: 16.4%
[14]
  viability, T/C: 15.7%
[15]
  viability, T/C: 15.8%
[16]
  viability, T/C: 16.8%
[17]
  viability, T/C: 15.9%
[18]
  viability, T/C: 16.3%
[19]
  viability, T/C: 15%
[20]
  viability, T/C: 15.3%
[21]
  viability, T/C: 16%
[22]
  viability, T/C: 17.6%
[23]
  viability, T/C: 17%
[24]
  viability, T/C: 17%
[25]
  viability, T/C: 16.3%
[26]
  viability, T/C: 16.8%
[27]
  viability, T/C: 17%
[28]
  viability, T/C: 16.9%
[29]
  viability, T/C: 15.7%
[30]
  viability, T/C: 16%
[31]
  viability, T/C: 16.1%
[32]
  viability, T/C: 15.1%
[33]
  viability, T/C: 16%
[34]
  viability, T/C: 16.6%
[35]
  viability, T/C: 17.6%
[36]
  viability, T/C: 17.2%
